Measurements reported in ChEMBL document CHEMBL4321822 (J Med Chem, 2019).
The source made the active and inactive calls. The rule behind the calls is not given here.

Experiments:
[1] = system: Mus musculus; assay: Neuroprotection against oligomerized-amyloid beta (25 to 35)-induced Swiss mouse model of Alzheimer's disease assessed as improvement in spontaneous alternation at 0.3 to 3 mg/kg, ip administered once daily for 7 days measured on day 8 by Y-maze test; type: functional, organism-based
[2] = system: Mus musculus; assay: Effect on latency time during training in Swiss mouse model of Alzheimer's disease assessed as increase in retention latency time at 0.3 to 3 mg/kg, ip administered once daily for 7 days measured 48 hrs post-last dose by step-through passive avoidance test; type: ADME, organism-based; conditions: in vivo
[3] = system: Mus musculus; assay: Neuroprotection against oligomerized-amyloid beta (25 to 35)-induced Swiss mouse model of Alzheimer's disease assessed as increase in number of arm entries at 0.3 to 3 mg/kg, ip administered once daily for 7 days measured on day 8 by Y-maze test; type: functional, organism-based
[4] = Toxicity in oligomerized-amyloid beta (25 to 35)-induced Swiss mouse model of Alzheimer's disease assessed as effect on body weight gain at 0.3 to 3 mg/kg, ip administered once daily for 7 days measured daily during compound dosing; type: organism-based; conditions: in vivo, 168 h
[5] = system: Mus musculus; assay: Neuroprotection against oligomerized-amyloid beta (25 to 35)-induced Swiss mouse model of Alzheimer's disease assessed as increase in retention latency time at 0.3 to 3 mg/kg, ip administered once daily for 7 days measured 48 to 72 hrs post-last dose by step-through passive avoidance test; type: functional, organism-based
[6] = system: Mus musculus; assay: Effect on shock sensitivity during training in Swiss mouse model of Alzheimer's disease assessed as increase in retention latency time at 0.3 to 3 mg/kg, ip administered once daily for 7 days measured 48 hrs post-last dose by step-through passive avoidance test; type: ADME, organism-based; conditions: in vivo
[7] = biological target: T1, Cholinesterase (Homo sapiens, UniProt P06276); assay: (§1) Inhibition of human plasma BChE assessed as carbamylation by measuring rate constant for inhibitor-enzyme complex formation using butyrylthiocholine iodide as substrate preincubated for 5 to 40 mins followed by substrate addition and measured after 2.5 mins by DTNB reagent based UV-spectrometric method
T1 sequence (P06276 whole entry): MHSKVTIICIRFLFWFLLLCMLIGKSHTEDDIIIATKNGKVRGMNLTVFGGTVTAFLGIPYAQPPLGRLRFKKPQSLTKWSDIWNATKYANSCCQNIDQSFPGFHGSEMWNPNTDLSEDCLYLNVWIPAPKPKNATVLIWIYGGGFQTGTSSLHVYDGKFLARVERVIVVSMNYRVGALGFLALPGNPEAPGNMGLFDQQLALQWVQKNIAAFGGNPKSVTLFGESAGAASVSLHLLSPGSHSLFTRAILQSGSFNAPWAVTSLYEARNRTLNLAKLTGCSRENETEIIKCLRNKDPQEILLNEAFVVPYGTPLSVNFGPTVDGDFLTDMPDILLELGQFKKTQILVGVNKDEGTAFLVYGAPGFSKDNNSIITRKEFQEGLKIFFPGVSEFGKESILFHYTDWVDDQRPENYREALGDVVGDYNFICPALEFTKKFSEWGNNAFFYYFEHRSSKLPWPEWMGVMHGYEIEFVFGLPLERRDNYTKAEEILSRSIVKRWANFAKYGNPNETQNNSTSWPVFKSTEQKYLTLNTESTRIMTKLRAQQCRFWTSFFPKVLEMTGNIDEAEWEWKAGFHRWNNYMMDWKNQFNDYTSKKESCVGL

[8] = biological target: T1, Cholinesterase; assay: as §1, with “[…]” for “inhibitor-enzyme”
[9] = biological target: T1, Cholinesterase; assay: Inhibition of human plasma BChE using butyrylthiocholine iodide as substrate preincubated for 20 mins followed by substrate addition and measured after 2.5 mins by DTNB reagent based spectrometric method
[10] = biological target: T1, Cholinesterase; assay: (§2) Inhibition of human plasma BChE assessed as decarbamylation by measuring rate constant for enzyme recovery at IC>85 using butyrylthiocholine iodide as substrate incubated for 1 hr prior to compound dilution further incubated for 1 to 40 mins and subsequent substrate addition and measured after 2.5 mins by DTNB reagent based UV-spectrometric method
[11] = biological target: T1, Cholinesterase; assay: as §2, with “half life” for “decarbamylation by measuring rate constant”, “enzyme-inhibitor […]” for “enzyme recovery”
[12] = biological target: Cholinesterases; ACHE & BCHE (Homo sapiens) (UniProt P06276+P22303); assay: Selectivity index, ratio of IC50 for inhibition of human erythrocyte AChE to IC50 for inhibition of human plasma BChE; type: protein assay
Chain of Cholinesterases; ACHE & BCHE (Homo sapiens) (P06276 whole entry, looked up): as the sequence (P06276 whole entry) above
Chain of Cholinesterases; ACHE & BCHE (Homo sapiens) (P22303 whole entry, looked up): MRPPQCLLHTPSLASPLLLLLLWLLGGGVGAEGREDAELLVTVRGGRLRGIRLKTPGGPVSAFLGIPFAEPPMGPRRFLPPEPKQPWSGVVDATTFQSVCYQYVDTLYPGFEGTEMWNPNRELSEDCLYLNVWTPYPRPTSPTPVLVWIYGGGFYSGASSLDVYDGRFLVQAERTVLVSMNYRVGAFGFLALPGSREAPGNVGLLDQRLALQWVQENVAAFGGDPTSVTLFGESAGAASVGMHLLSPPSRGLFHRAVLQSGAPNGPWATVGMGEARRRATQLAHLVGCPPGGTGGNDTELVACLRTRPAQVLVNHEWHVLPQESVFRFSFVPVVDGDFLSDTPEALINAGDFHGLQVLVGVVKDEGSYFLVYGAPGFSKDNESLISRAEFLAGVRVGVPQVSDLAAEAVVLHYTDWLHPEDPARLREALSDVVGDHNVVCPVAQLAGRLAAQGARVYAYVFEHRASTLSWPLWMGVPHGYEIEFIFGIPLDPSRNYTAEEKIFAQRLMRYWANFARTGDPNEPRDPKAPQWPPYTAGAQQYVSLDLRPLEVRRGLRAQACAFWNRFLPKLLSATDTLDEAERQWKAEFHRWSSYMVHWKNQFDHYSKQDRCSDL

[13] = biological target: Acetylcholinesterase (Homo sapiens) (UniProt P22303); assay: Inhibition of human erythrocyte AChE at 10 uM using acetylthiocholine iodide as substrate preincubated for 20 mins followed by substrate addition and measured after 2.5 mins by DTNB reagent based spectrometric method relative to control
Chain of Acetylcholinesterase (Homo sapiens) (P22303 whole entry): as the sequence (P22303 whole entry, looked up) above

[14] = system: HT-22; assay: Neuroprotection against glutamate-induced cell death in mouse HT22 cells assessed as increase in cell viability at 5 uM measured after 24 hrs by MTT assay; type: functional, cell-based
[15] = system: Mus musculus; assay: Neuroprotection against oligomerized-amyloid beta (25 to 35)-induced Swiss mouse model of Alzheimer's disease assessed as improvement in spontaneous alternation at 1 to 3 mg/kg, ip administered once daily for 7 days measured on day 8 by Y-maze test; type: functional, organism-based
[16] = system: HT-22; assay: Neurotoxicity in mouse HT22 cells assessed as reduction in cell viability up to 25 uM measured after 24 hrs by MTT assay; type: toxicity, cell-based; conditions: ht-22, 24 h
[17] = system: Mus musculus; assay: Neuroprotection against oligomerized-amyloid beta (25 to 35)-induced Swiss mouse model of Alzheimer's disease assessed as increase in retention latency time at 1 to 3 mg/kg, ip administered once daily for 7 days measured 48 to 72 hrs post-last dose by step-through passive avoidance test; type: functional, organism-based
[18] = system: Mus musculus; assay: Neuroprotection against oligomerized-amyloid beta (25 to 35)-induced Swiss mouse model of Alzheimer's disease assessed as improvement in spontaneous alternation at 3 mg/kg, ip administered once daily for 7 days measured on day 8 by Y-maze test; type: functional, organism-based
[19] = system: HT-22; assay: Neuroprotection against glutamate-induced cell death in mouse HT22 cells assessed as increase in cell viability measured after 24 hrs by MTT assay; type: functional, cell-based
[20] = system: Mus musculus; assay: Neuroprotection against oligomerized-amyloid beta (25 to 35)-induced Swiss mouse model of Alzheimer's disease assessed as improvement in spontaneous alternation at 0.3 mg/kg, ip administered once daily for 7 days measured on day 8 by Y-maze test; type: functional, organism-based
[21] = system: Mus musculus; assay: Neuroprotection against oligomerized-amyloid beta (25 to 35)-induced Swiss mouse model of Alzheimer's disease assessed as improvement in spontaneous alternation at 1 mg/kg, ip administered once daily for 7 days measured on day 8 by Y-maze test; type: functional, organism-based
[22] = biological target: T2, Acetylcholinesterase (Mus musculus, UniProt P21836); assay: Inhibition of mouse AChE using acetylthiocholine as substrate measured after 300 secs by Ellman's method
T2 sequence (P21836 whole entry): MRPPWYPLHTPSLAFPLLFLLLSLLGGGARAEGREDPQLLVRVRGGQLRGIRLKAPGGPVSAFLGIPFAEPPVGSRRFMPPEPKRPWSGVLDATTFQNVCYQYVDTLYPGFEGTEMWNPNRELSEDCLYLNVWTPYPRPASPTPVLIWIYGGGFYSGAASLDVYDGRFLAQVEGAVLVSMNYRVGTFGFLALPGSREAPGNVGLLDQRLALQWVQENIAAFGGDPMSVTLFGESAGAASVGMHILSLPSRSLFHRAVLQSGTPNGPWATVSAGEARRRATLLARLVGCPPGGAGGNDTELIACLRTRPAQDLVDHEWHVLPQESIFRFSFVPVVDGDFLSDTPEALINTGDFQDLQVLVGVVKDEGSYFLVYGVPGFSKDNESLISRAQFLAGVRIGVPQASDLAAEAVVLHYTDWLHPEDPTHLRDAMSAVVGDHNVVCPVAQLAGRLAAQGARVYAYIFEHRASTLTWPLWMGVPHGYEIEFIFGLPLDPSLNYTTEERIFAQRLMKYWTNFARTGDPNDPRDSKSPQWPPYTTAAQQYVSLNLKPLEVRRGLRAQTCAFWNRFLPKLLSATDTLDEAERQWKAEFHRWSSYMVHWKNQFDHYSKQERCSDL

| Structure (SMILES) | K [7] | K [8] | IC50 [9] | K [10] | T1/2 [11] | Ratio IC50 [12] | inhibition [13] | other results |
| --- | --- | --- | --- | --- | --- | --- | --- | --- |
| CN1c2ccc(O)cc2CN2CCc3ccccc3C21 (centres undefined) | – | – | – | – | – | – | – | Activity [1]: inactive; Activity [2]: Non-Toxic; Activity [3]: Active; Activity [4]: Non-Toxic; Activity [5]: inactive; Activity [6]: Non-Toxic |
| CN1c2ccc(OC(=O)NCCCCCCn3ccnc3)cc2CN2CCc3ccccc3C21 (centres undefined) | 0.31 min⁻¹ | 13.1 nM | 13.3 nM | 0.82 h⁻¹ | 0.85 h | > 1000 | 9.1% | – |
| CN1c2ccc(OC(=O)NCCCCCCN3CCCC3)cc2CN2CCc3ccccc3C21 (centres undefined) | – | – | 34.3 nM | 0.98 h⁻¹ | 0.71 h | 26 | – | – |
| CCCCCCCNC(=O)Oc1ccc2c(c1)CN1CCc3ccccc3C1N2C (centres undefined) | 0.66 min⁻¹ | – | – | – | – | – | – | Activity [2]: Non-Toxic; Activity [14]: Active; Activity [15]: Active; Activity [16]: Non-Toxic; Activity [3]: Active; Activity [4]: Non-Toxic; Activity [5]: Active; Activity [6]: Non-Toxic |
| CCCCCCCNC(=O)Oc1ccc2c(c1)CN(C)C(c1cccs1)N2C (centres undefined) | – | – | – | – | – | – | – | Activity [2]: Non-Toxic; Activity [17]: Active; Activity [3]: inactive; Activity [4]: Non-Toxic; Activity [18]: Active; Activity [6]: Non-Toxic |
| CN1c2ccc(OC(=O)NCCCCCCN3CCOCC3)cc2CN2CCc3ccccc3C21 (centres undefined) | 0.16 min⁻¹ | 202 nM | 49.3 nM | 0.042 h⁻¹ | 16.5 h | > 1000 | 26.1% | Activity [2]: Non-Toxic; Activity [19]: Dose-dependent effect; Activity [20]: Active; Activity [16]: Non-Toxic; Activity [3]: Active; Activity [4]: Non-Toxic; Activity [5]: Active; Activity [6]: Non-Toxic |
| CN1c2ccc(OC(=O)NCCN3CCc4ccccc4C3)cc2CN2CCc3ccccc3C21 (centres undefined) | > 20 min⁻¹ | > 200000 nM | 1720 nM | – | – | > 10 | 3.9% | – |
| CN1c2ccc(OC(=O)NCCCCCCN3CCc4ccccc4C3)cc2CN2CCc3ccccc3C21 (centres undefined) | 0.18 min⁻¹ | 3.6 nM | 26.7 nM | 0.025 h⁻¹ | 27.7 h | > 1000 | 0.4% | Activity [2]: Non-Toxic; Activity [19]: Dose-dependent effect; Activity [21]: Active; Activity [16]: Non-Toxic; Activity [3]: Active; Activity [4]: Non-Toxic; Activity [5]: Active; Activity [6]: Non-Toxic |
| CN1c2ccc(OC(=O)NCCCCN3CCc4ccccc4C3)cc2CN2CCc3ccccc3C21 (centres undefined) | – | – | 192 nM | 0.028 h⁻¹ | 24.8 h | > 100 | 6% | – |
| CN1c2ccc(OC(=O)NCCCCCCCCCCN3CCOCC3)cc2CN2CCc3ccccc3C21 (centres undefined) | – | – | 11.5 nM | – | – | > 1000 | 17.8% | – |
| CN1c2ccc(OC(=O)NCCCCCCn3cnc4ccccc43)cc2CN2CCc3ccccc3C21 (centres undefined) | 0.26 min⁻¹ | 7.7 nM | – | 0.45 h⁻¹ | 1.55 h | > 1000 | 28.8% | – |
| CN1c2ccc(OC(=O)NCCN3CCOCC3)cc2CN2CCc3ccccc3C21 (centres undefined) | – | – | – | – | – | > 10 | 4.1% | – |
| CN1c2ccc(OC(=O)NCCCCN3CCOCC3)cc2CN2CCc3ccccc3C21 (centres undefined) | – | – | 50.6 nM | 0.48 h⁻¹ | 1.44 h | > 1000 | 16.3% | – |
| CN1c2ccc(OC(=O)NCCCCCCN3CCNCC3)cc2CN2CCc3ccccc3C21 (centres undefined) | 0.32 min⁻¹ | 121 nM | 80.6 nM | 1.44 h⁻¹ | 0.48 h | > 100 | 35.5% | – |
| CN1c2ccc(OC(=O)NCCCCCCCCCCN3CCc4ccccc4C3)cc2CN2CCc3ccccc3C21 (centres undefined) | 0.25 min⁻¹ | 5.68 nM | – | – | – | > 1000 | 5.7% | – |
| CN1c2ccc(OC(=O)NCCCCCCCCN3CCc4ccccc4C3)cc2CN2CCc3ccccc3C21 (centres undefined) | – | – | 32.6 nM | 0.83 h⁻¹ | 0.84 h | > 1000 | 6.2% | – |
| CN1c2ccc(OC(=O)NCCCCCCN3CCN(C(=O)OC(C)(C)C)CC3)cc2CN2CCc3ccccc3C21 (centres undefined) | 0.7 min⁻¹ | 1550 nM | 123 nM | – | – | > 10 | 70.6% | – |
| COCCN(CC1CCCN(Cc2ccccc2)C1)S(=O)(=O)c1ccc2ccccc2c1 (centres undefined) | – | – | – | – | – | – | – | IC50 [22]: > 10 µM |
| CN1c2ccc(OC(=O)NCCCCCCN3CCCCC3)cc2CN2CCc3ccccc3C21 (centres undefined) | – | – | 83.7 nM | 0.123 h⁻¹ | 5.64 h | 14 | – | – |
| CN1c2ccc(OC(=O)NCCCCCCCCN3CCOCC3)cc2CN2CCc3ccccc3C21 (centres undefined) | – | – | 19.8 nM | 1.58 h⁻¹ | 0.44 h | > 1000 | 13.6% | – |
| CN1c2ccc(OC(=O)NCCCN3CCOCC3)cc2CN2CCc3ccccc3C21 (centres undefined) | – | – | – | – | – | > 100 | 2.1% | – |
| CN1c2ccc(OC(=O)NCCCN3CCc4ccccc4C3)cc2CN2CCc3ccccc3C21 (centres undefined) | – | – | 1160 nM | – | – | > 10 | 6.4% | – |
